The source of these data is ChEMBL document CHEMBL5729245, “Dioxinoquinoline compounds, preparation method and uses thereof” (2022).

Test [1] has as its target Vascular endothelial growth factor receptor 2 (Homo sapiens, UniProt P35968). As to the kind of experiment: Assay of Small Molecular Compounds for Inhibiting the Activity of VEGFR-2 Kinase: The assay is based on the LANCE TR-FRET technology of Perkin Elmer Inc., and the assay method is as follows:1. Dilution of compounds: a total of 11 concentrations were obtained using a 3-fold gradient dilution from the highest concentration of 2500 nM (the maximum final concentration of the drug used in this assay was 2500 nM, and the minimum final concentration was 0.042 nM).2. 2.5 μL of the gradient-diluted compounds were taken with a transfer pipette to a 384-well plate.3. Addition of enzyme: 5 μL of 2× VEGFR-2 kinase solution (concentration was 0.5 nM) was taken with a transfer pipette to the corresponding reaction well of the 384-well plate, mixed well and pre-reacted at room temperature for 30 minutes.4. 2.5 μL 4× Ultra ULight™-JAK-1 (Tyr1023) Peptide (concentration was 200 nM)/ATP (concentration was 40 μM) mixture was taken with a transfer pipette to the corresponding reaction well of the 384-well plate.5. Negative control: 2.5 μL/well 4× substrate/ATP mixture and 7.5 μL 1× Kinase Assay Buffer were added to the wells of the 384-well plate.6. Positive control: 2.5 μL/well 4× substrate/ATP mixture, 2.5 μL/well 1× Kinase Assay Buffer containing 16% DMSO, and 5 μL/well 2× VEGFR-2 kinase solution were added to the 384-well plate. The final concentration of DMSO in the reaction system was 4%.7. The mixture was mixed well and then centrifuged and reacted at room temperature in dark for 60 min.8. Termination of the enzymatic reaction: 5 μL of 4× stop solution was taken with a transfer pipette to the wells of the 384-well plate, mixed and then centrifuged, and reacted at room temperature for 5 min.9. Development of the reaction: 5 μL of 4× detection solution was taken with a transfer pipette to the wells of the 384-well plate for color development, and the mixture was mixed and then centrifuged and reacted at room temperature for 60 min.10. The 384-well plate was placed into the Envision plate reader and the signal was detected using the appropriate program.11. Analysis and processing of the raw data:The drug concentrations and the corresponding inhibition rates were input into GraphPad Prism5 for calculation, and the inhibition rate of the compounds were calculated as follows: inhibition rate (%)=(reading of positive well−reading of experimental well)/(reading of positive control well−reading of negative control well)×100%. Processing with GraphPad Prism5 software yielded the corresponding IC50 values (the concentration of the compound at which 50% of the highest inhibition of the enzyme is achieved).

For test [2], the target named is Hepatocyte growth factor receptor (Homo sapiens, UniProt P08581). As to the kind of experiment: Assay of Small Molecular Compounds for Inhibiting the Activity of c-MET Kinase: The assay is based on the LANCE TR-FRET technology of Perkin Elmer Inc., and the assay method is as follows:1. Dilution of compounds: a total of 11 concentrations were obtained using a 3-fold gradient dilution from the highest concentration of 2500 nM (the maximum final concentration of the drug used in this assay was 2500 nM, and the minimum final concentration was 0.042 nM).2. 2.5 μL of the gradient-diluted compounds were taken with a transfer pipette to a 384-well plate.3. Addition of enzyme: 5 μL of 2× c-MET kinase solution (concentration was 2 nM) was taken with a transfer pipette to the corresponding reaction well of the 384-well plate, mixed well and pre-reacted at room temperature for 5 minutes.4. 2.5 μL 4× Ultra ULight™-JAK-1 (Tyr1023) Peptide (concentration was 400 nM)/ATP (concentration was 40 μM) mixture was taken with a transfer pipette to the corresponding reaction well of the 384-well plate.5. Negative control: 2.5 μL/well 4× substrate/ATP mixture and 7.5 μL 1× Kinase Assay Buffer were added to the wells of the 384-well plate.6. Positive control: 2.5 μL/well 4× substrate/ATP mixture, 2.5 μL/well 1× Kinase Assay Buffer containing 16% DMSO, and 5 µL/well 2× c-MET kinase solution were added to the 384-well plate. The final concentration of DMSO in the reaction system was 4%.7. The mixture was mixed well and then centrifuged and reacted at room temperature in dark for 60 min.8. Termination of the enzymatic reaction: 5 μL of 4× stop solution was taken with a transfer pipette to the wells of the 384-well plate, mixed and then centrifuged, and reacted at room temperature for 5 min.9. Development of the reaction: 5 μL of 4× detection solution was taken with a transfer pipette to the wells of the 384-well plate for color development, and the mixture was mixed and then centrifuged and reacted at room temperature for 60 min.10. The 384-well plate was placed into the Envision plate reader and the signal was detected using the appropriate program.11. Analysis and processing of the raw data:12. The drug concentrations and the corresponding inhibition rates were input into GraphPad Prism5 for calculation, and the inhibition rate of the compounds were calculated as follows: inhibition rate (%)=(reading of positive well−reading of experimental well)/(reading of positive control well−reading of negative control well)×100%. Processing with GraphPad Prism5 software yielded the corresponding IC50 values (the concentration of the compound at which 50% of the highest inhibition of the enzyme is achieved).
Sequence of Hepatocyte growth factor receptor (P08581 whole entry): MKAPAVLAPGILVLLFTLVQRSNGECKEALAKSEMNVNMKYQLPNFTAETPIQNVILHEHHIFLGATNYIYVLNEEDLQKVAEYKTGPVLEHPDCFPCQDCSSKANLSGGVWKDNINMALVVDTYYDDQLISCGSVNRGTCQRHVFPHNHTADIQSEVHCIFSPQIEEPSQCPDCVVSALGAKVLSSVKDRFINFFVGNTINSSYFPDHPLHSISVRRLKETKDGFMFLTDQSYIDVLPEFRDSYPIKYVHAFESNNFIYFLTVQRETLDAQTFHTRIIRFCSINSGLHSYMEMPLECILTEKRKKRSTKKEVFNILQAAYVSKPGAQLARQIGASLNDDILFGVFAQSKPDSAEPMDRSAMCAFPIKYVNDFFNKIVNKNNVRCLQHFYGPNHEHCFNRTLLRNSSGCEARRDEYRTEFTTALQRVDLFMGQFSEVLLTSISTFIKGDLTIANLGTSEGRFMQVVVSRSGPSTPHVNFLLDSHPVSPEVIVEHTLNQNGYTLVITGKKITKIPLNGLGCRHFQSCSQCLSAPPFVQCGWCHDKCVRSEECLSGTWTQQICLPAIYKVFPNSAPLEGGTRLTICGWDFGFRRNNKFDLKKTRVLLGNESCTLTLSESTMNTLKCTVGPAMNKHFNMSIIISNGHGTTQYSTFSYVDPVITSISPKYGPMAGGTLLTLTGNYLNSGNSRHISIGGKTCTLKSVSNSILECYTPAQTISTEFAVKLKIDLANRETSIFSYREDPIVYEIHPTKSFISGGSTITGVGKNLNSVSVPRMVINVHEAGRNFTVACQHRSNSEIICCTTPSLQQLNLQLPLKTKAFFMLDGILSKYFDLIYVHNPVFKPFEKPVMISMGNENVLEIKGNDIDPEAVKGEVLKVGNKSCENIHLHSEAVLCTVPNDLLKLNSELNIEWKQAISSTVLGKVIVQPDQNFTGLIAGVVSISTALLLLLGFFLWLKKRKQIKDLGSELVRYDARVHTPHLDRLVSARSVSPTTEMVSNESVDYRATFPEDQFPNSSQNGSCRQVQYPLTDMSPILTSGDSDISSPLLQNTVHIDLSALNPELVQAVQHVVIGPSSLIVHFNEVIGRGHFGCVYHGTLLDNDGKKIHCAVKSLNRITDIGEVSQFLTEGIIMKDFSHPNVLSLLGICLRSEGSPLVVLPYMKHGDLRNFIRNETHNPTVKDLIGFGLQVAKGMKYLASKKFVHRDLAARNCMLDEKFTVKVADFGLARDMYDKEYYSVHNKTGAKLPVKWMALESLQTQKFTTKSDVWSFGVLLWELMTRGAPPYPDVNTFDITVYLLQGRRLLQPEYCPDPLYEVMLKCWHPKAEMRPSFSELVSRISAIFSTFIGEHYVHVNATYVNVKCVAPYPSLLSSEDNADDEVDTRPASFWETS

Sequence of Vascular endothelial growth factor receptor 2 (P35968 whole entry): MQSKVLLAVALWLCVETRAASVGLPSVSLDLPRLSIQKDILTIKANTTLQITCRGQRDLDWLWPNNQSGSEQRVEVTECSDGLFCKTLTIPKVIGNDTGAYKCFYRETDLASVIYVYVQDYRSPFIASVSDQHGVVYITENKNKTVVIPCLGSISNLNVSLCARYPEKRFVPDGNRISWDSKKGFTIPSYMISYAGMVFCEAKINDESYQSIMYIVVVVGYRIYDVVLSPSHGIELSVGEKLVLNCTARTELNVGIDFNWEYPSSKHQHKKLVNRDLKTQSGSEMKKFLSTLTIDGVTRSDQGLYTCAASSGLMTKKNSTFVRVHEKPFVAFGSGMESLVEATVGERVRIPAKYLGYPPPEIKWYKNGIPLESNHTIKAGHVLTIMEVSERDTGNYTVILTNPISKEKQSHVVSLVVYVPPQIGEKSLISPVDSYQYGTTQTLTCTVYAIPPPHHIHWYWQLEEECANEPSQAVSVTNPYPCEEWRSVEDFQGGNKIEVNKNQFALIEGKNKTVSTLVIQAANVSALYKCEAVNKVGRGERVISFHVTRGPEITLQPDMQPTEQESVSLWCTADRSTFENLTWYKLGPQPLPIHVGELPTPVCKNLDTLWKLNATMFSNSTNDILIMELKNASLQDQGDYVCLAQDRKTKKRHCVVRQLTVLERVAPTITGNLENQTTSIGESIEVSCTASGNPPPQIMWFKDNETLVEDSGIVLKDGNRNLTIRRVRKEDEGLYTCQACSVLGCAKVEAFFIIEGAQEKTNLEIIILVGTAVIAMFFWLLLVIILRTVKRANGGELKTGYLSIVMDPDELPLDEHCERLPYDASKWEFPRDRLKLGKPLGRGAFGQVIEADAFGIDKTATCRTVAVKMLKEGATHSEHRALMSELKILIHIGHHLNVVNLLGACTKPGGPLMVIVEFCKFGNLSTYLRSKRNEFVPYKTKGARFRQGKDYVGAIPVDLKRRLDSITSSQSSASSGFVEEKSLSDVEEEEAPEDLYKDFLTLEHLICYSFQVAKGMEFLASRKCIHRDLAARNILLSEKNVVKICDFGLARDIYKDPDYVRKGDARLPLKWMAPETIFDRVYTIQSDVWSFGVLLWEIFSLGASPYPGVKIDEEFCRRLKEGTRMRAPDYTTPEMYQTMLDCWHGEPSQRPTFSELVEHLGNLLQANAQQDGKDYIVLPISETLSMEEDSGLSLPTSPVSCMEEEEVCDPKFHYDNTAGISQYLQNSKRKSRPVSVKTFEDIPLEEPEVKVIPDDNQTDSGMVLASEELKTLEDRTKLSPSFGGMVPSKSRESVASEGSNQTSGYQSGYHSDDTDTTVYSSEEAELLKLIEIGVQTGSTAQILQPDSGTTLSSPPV

On to `CN(CCCOc1cc2nccc(Oc3ccc(NC(=O)C4(C(=O)Nc5ccc(F)cc5)CC4)cc3F)c2c2c1OCCO2)C1CCC1`, for which the IC50 in test [1] and in test [2] was less than 0.05 µM throughout.
`O=C(Nc1ccc(F)cc1)C1(C(=O)Nc2ccc(Oc3ccnc4cc(OCCCN5CCOCC5)c5c(c34)OCCO5)c(F)c2)CC1`: the IC50 in test [1] and in test [2] was less than 0.05 µM each time.
`COc1cc2nccc(Oc3cc(Cl)c(NC(=O)C4(C(=O)Nc5ccc(F)cc5)CC4)cc3F)c2c2c1OCCO2`: the IC50 is more than 5 µM in test [1] and less than 0.05 µM in test [2].
Turning to `CN(C)CCCCCCOc1cc2nccc(Oc3ccc(NC(=O)C4(C(=O)Nc5ccc(F)cc5)CC4)cc3F)c2c2c1OCCO2`, the IC50 in test [1] and in test [2] was less than 0.05 µM each time.
Take `CN1CCN(CCCOc2cc3nccc(Oc4ccc(NC(=O)C5(C(=O)Nc6ccc(F)cc6)CC5)cc4F)c3c3c2OCCO3)CC1`: the IC50 in test [1] and in test [2] was less than 0.05 µM each time.
Consider `O=C(Nc1ccc(F)cc1)C1(C(=O)Nc2ccc(Oc3ccnc4cc(OCCO)c5c(c34)OCCO5)c(F)c2)CC1`, for which the IC50 in test [1] and in test [2] was less than 0.05 µM in each case.
Regarding `O=C(Nc1ccc(F)cc1)C1(C(=O)Nc2ccc(Oc3ccnc4cc(OC5CCOC5)c5c(c34)OCCO5)c(F)c2)CC1` (stereo unspecified), the half-maximal inhibitory concentration (IC50) in test [1] and in test [2] was less than 0.05 µM each time.
As for `O=C(Nc1ccc(F)cc1)C1(C(=O)Nc2ccc(Oc3ccnc4cc(OCCCN5CCOCC5)c5c(c34)OCCO5)cc2Cl)CC1`, the IC50 in test [2] was less than 0.05 µM.
Same read-out and setting: next, `N#CCOc1cc2nccc(Oc3ccc(NC(=O)C4(C(=O)Nc5ccc(F)cc5)CC4)cc3F)c2c2c1OCCO2`: less than 0.05 µM.
`O=C(Nc1ccc(F)cc1)C1(C(=O)Nc2ccc(Oc3ccnc4cc(OCCCN5CCCCC5)c5c(c34)OCCO5)c(F)c2)CC1`: the IC50 in test [1] and in test [2] was less than 0.05 µM each time.
For `CC1(N)CCN(CCCOc2cc3nccc(Oc4ccc(NC(=O)C5(C(=O)Nc6ccc(F)cc6)CC5)cc4F)c3c3c2OCCO3)CC1`, the IC50 in test [1] and in test [2] was less than 0.05 µM each time.
Take `CC1(O)CCN(CCCOc2cc3nccc(Oc4ccc(NC(=O)C5(C(=O)Nc6ccc(F)cc6)CC5)cc4F)c3c3c2OCCO3)CC1`: the IC50 in test [1] and in test [2] was less than 0.05 µM throughout.
Turning to `O=C(Nc1ccc(F)cc1)C1(C(=O)Nc2ccc(Oc3ccnc4cc(OC5COC5)c5c(c34)OCCO5)c(F)c2)CC1`, the IC50 in test [1] and in test [2] was less than 0.05 µM in each case.
On to `COCCN(C)CCCOc1cc2nccc(Oc3ccc(NC(=O)C4(C(=O)Nc5ccc(F)cc5)CC4)cc3F)c2c2c1OCCO2`, for which the IC50 in test [1] and in test [2] was less than 0.05 µM throughout.
Regarding `O=C(Nc1ccc(F)cc1)C1(C(=O)Nc2ccc(Oc3ccnc4cc(OCCCN5CCOCC5)c5c(c34)OCCO5)cc2F)CC1`, the IC50 in test [1] and in test [2] was less than 0.05 µM in each case.
Turning to `O=C(Nc1ccc(F)cc1)C1(C(=O)Nc2ccc(Oc3ccnc4cc(OCCCN5CCCC5)c5c(c34)OCCO5)c(F)c2)CC1`, the IC50 in test [1] and in test [2] was less than 0.05 µM in each case.
As for `CCOc1cc2nccc(Oc3ccc(NC(=O)C4(C(=O)Nc5ccc(F)cc5)CC4)cc3F)c2c2c1OCCO2`, the IC50 in test [1] and in test [2] was less than 0.05 µM in each case.
In the case of `COc1cc2nccc(Oc3ccc(NC(=O)C4(C(=O)Nc5ccc(F)cc5)CC4)cc3F)c2c2c1OCCO2`, the IC50 in test [1] and in test [2] was less than 0.05 µM throughout.
Consider `COCCOc1cc2nccc(Oc3ccc(NC(=O)C4(C(=O)Nc5ccc(F)cc5)CC4)cc3F)c2c2c1OCCO2`, for which the IC50 in test [1] and in test [2] was less than 0.05 µM throughout.
Regarding `O=C(Nc1ccc(F)cc1)C1(C(=O)Nc2ccc(Oc3ccnc4cc(OCCCN5CCS(=O)(=O)CC5)c5c(c34)OCCO5)c(F)c2)CC1`, the IC50 in test [1] and in test [2] was less than 0.05 µM each time.
Turning to `CC(C)(O)COc1cc2nccc(Oc3ccc(NC(=O)C4(C(=O)Nc5ccc(F)cc5)CC4)cc3F)c2c2c1OCCO2`, the IC50 in test [1] and in test [2] was less than 0.05 µM throughout.
On to `CN(C)CCCOc1cc2nccc(Oc3ccc(NC(=O)C4(C(=O)Nc5ccc(F)cc5)CC4)cc3F)c2c2c1OCCO2`, for which the IC50 in test [1] and in test [2] was less than 0.05 µM each time.
In the case of `COc1cc2nccc(Oc3ccc(NC(=O)C4(C(=O)Nc5ccc(F)cc5)CC4)cc3)c2c2c1OCCO2`, the IC50 in test [1] and in test [2] was less than 0.05 µM in each case.
For the compound `O=C(Nc1ccc(F)cc1)C1(C(=O)Nc2ccc(Oc3ccnc4cc(OCCCN5CCOCC5)c5c(c34)OCCO5)cc2)CC1`, the IC50 in test [1] and in test [2] was less than 0.05 µM in each case.
With `CC(C)Oc1cc2nccc(Oc3ccc(NC(=O)C4(C(=O)Nc5ccc(F)cc5)CC4)cc3F)c2c2c1OCCO2`, the IC50 in test [2] is less than 0.05 µM.
In the case of `COCCCOc1cc2nccc(Oc3ccc(NC(=O)C4(C(=O)Nc5ccc(F)cc5)CC4)cc3F)c2c2c1OCCO2`, the IC50 in test [1] and in test [2] was less than 0.05 µM each time.
With `CC1(C)CCN(CCCOc2cc3nccc(Oc4ccc(NC(=O)C5(C(=O)Nc6ccc(F)cc6)CC5)cc4F)c3c3c2OCCO3)CC1`, the IC50 in test [1] and in test [2] was less than 0.05 µM throughout.
Consider `O=C(Nc1ccc(F)cc1)C1(C(=O)Nc2ccc(Oc3ccnc4cc(OC5CCOCC5)c5c(c34)OCCO5)c(F)c2)CC1`, for which the IC50 in test [2] was less than 0.05 µM.
Regarding `N#CCCCOc1cc2nccc(Oc3ccc(NC(=O)C4(C(=O)Nc5ccc(F)cc5)CC4)cc3F)c2c2c1OCCO2`, the IC50 in test [1] and in test [2] was less than 0.05 µM each time.
Turning to `NC1(COc2cc3nccc(Oc4ccc(NC(=O)C5(C(=O)Nc6ccc(F)cc6)CC5)cc4F)c3c3c2OCCO3)CC1`, the IC50 in test [1] and in test [2] was less than 0.05 µM in each case.
As for `COc1cc2nccc(Oc3ccc(NC(=O)C4(C(=O)Nc5ccc(F)cc5)CC4)c(F)c3)c2c2c1OCCO2`, the concentration for half-maximal inhibition (IC50) in test [1] and in test [2] was less than 0.05 µM each time.
Turning to `O=C(Nc1ccc(F)cc1)C1(C(=O)Nc2ccc(Oc3ccnc4cc(OCCCO)c5c(c34)OCCO5)c(F)c2)CC1`, the IC50 in test [1] and in test [2] was less than 0.05 µM each time.
As to `O=C(Nc1ccc(F)cc1)C1(C(=O)Nc2ccc(Oc3ccnc4cc(OCCCN5CCOCC5)c5c(c34)OCCO5)c(Cl)c2)CC1`, the IC50 in test [2] was less than 0.05 µM.
